Key:
[1] = test system: MAPK14 (Balb/c mice); assay: Inhibition of TNF-alpha Release in Balb/c Mice; conditions: dose or concentration not given here
[2] = target: MAPK14 (human) (UniProt Q16539); assay: Inhibition of TNF-alpha Release from PBMC
MAPK14 (human), sequence (Q16539 whole entry, looked up): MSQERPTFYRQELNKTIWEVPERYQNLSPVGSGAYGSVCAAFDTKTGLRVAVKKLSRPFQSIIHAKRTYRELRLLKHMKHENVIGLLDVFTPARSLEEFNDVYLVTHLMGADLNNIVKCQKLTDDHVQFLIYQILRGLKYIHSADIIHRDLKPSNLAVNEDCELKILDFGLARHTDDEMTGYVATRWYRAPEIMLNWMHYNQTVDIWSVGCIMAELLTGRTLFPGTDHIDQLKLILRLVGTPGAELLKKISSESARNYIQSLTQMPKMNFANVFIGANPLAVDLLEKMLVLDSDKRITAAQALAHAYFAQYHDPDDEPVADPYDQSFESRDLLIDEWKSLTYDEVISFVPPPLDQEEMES

Structure (SMILES)	inhibition [1]	IC50 [2]
Nc1ccn2c(-c3ccnc(NCc4ccccc4)c3)c(-c3ccc(F)cc3)nc2n1	42%	
Nc1ccn2c(-c3ccncc3)c(-c3ccccc3)nc2n1	100%	55 nM
Nc1ccn2c(-c3ccncn3)c(-c3ccccc3)nc2n1	73%	
Nc1ccn2c(-c3ccncc3)c(-c3ccc(F)cc3)nc2n1	100%	49 nM
CSc1nccc(-c2c(-c3cccc(C(F)(F)F)c3)nc3nc(N)ccn23)n1	38%	27 nM
CSc1nccc(-c2c(-c3ccccc3)nc3nc(N)ccn23)n1	23%	
CSc1nccc(-c2c(-c3ccc(F)cc3)nc3nc(N)ccn23)n1	68%	37 nM
Nc1ccn2c(-c3ccnc4ccccc34)c(-c3ccc(F)cc3)nc2n1	26%	333 nM
Nc1ccn2c(-c3ccnc(NCc4ccccc4)c3)c(-c3cccc(C(F)(F)F)c3)nc2n1	19%	4 nM
C[C@H](Nc1nccc(-c2c(-c3ccccc3)nc3nc(N)ccn23)n1)c1ccccc1	100%	0.4 nM
COc1nccc(-c2c(-c3ccccc3)nc3nc(N)ccn23)n1	87%	
COc1ccc(CNc2nccc(-c3c(-c4ccccc4)nc4nc(N)ccn34)n2)cc1		14 nM
Nc1ccn2c(-c3ccncn3)c(-c3cccc(C(F)(F)F)c3)nc2n1	85%	278 nM
C[C@H](Nc1nccc(-c2c(-c3ccc(F)cc3)nc3nc(N)ccn23)n1)C1CCCCC1	74%	1 nM
CS(=O)(=O)c1nccc(-c2c(-c3cccc(C(F)(F)F)c3)nc3nc(N)ccn23)n1	10%	520 nM
CS(=O)(=O)c1nccc(-c2c(-c3ccccc3)nc3nc(N)ccn23)n1		3410 nM
Nc1ccn2c(-c3ccncc3)c(-c3cccc(C(F)(F)F)c3)nc2n1	99%	35 nM
C[C@H](Nc1nccc(-c2c(-c3cccc(C(F)(F)F)c3)nc3nc(N)ccn23)n1)c1ccccc1	97%	0.5 nM
CSc1nccc(-c2c(-c3cccc(F)c3)nc3nc(N)ccn23)n1	51%	10 nM
Nc1ccn2c(-c3ccncc3)c(-c3cccc(F)c3)nc2n1	100%	55 nM
Nc1ccn2c(-c3ccncc3)c(-c3cccc(Cl)c3)nc2n1	47%	162 nM
Nc1ccn2c(-c3ccncc3)c(-c3ccc(F)c(Cl)c3)nc2n1	100%	21 nM
Nc1ccn2c(-c3ccncn3)c(-c3ccc(F)cc3)nc2n1	91%	199 nM
C[C@H](Nc1cc(-c2c(-c3ccc(F)cc3)nc3nc(N)ccn23)ccn1)c1ccccc1	97%	
Nc1ccn2c(-c3ccnc(N4CCCCC4)n3)c(-c3ccccc3)nc2n1	63%	8 nM

— the Kinase Knowledgebase extract (Sharma et al. 2016)
